Reference: patent EP1285918A1, “C7 Ester substituted taxanes as antitumor agents” (Florida State University Research Foundation, Inc., priority 2001, dated 2003)

Test system: HCT116
Assay: In Vitro cytotoxicity measured by the cell colony formation assay
Assay type: cell-based
Details: Homo sapiens, HCT-116; 72 h drug incubation, colonies counted after 7 days; concentration producing 50% inhibition of colony formation; read-out: IN VITRO ID 50 (nm) HCT116
Method: In Vitro cytotoxicity measured by the cell colony formation assay
Four hundred cells (HCT116) were plated in 60 mm Petri dishes containing 2.7 mL of medium (modified McCoy's 5a medium containing 10% fetal bovine serum and 100 units/mL penicillin and […] streptomycin). The cells were incubated in a CO2 incubator at 37 °C for 5 h for attachment to the bottom of Petri dishes. The compounds identified in Example 2 were made up fresh in medium at ten times the final concentration, and then 0.3 mL of this stock solution was added to the 2.7 mL of medium in the dish. The cells were then incubated with drugs for 72 h at 37 ° C. At the end of incubation the drug-containing media were decanted, the dishes were rinsed with 4 mL of Hank's Balance Salt Solution (HBSS), 5 mL of fresh medium was added, and the dishes were returned to the incubator for colony formation. The cell colonies were counted using a colony counter after incubation for 7 days. Cell survival was calculated and the values of ID50 (the drug concentration producing 50% inhibition of colony formation) were determined for each tested compound.

SMILES	IC50 [nM]
CCC(=O)O[C@H]1C[C@H]2OC[C@@]2(OC(C)=O)[C@H]2[C@H](OC(=O)c3ccccc3)[C@]3(O)C[C@H](OC(=O)[C@H](O)[C@@H](NC(=O)OC(C)(C)C)C(C)C)C(C)=C([C@@H](O)C(=O)[C@]12C)C3(C)C [Compound 1434]	< 10
C/C=C/C(=O)O[C@H]1C[C@H]2OC[C@@]2(OC(C)=O)[C@H]2[C@H](OC(=O)c3ccccc3)[C@]3(O)C[C@H](OC(=O)[C@H](O)[C@@H](NC(=O)OC(C)(C)C)c4cccs4)C(C)=C([C@@H](O)C(=O)[C@]12C)C3(C)C [Compound 6686]	< 1
CCCC(=O)O[C@H]1C[C@H]2OC[C@@]2(OC(C)=O)[C@H]2[C@H](OC(=O)c3ccccc3)[C@]3(O)C[C@H](OC(=O)[C@H](O)[C@@H](NC(=O)c4ccccc4)c4cccs4)C(C)=C([C@@H](O)C(=O)[C@]12C)C3(C)C [Compound 4414]	< 1
CCC(=O)O[C@H]1C[C@H]2OC[C@@]2(OC(C)=O)[C@H]2[C@H](OC(=O)c3ccccc3)[C@]3(O)C[C@H](OC(=O)[C@H](O)[C@@H](NC(=O)OCC(C)C)c4ccco4)C(C)=C([C@@H](O)C(=O)[C@]12C)C3(C)C [Compound 3196]	< 10
C/C=C/C(=O)N[C@@H](c1ccco1)[C@@H](O)C(=O)O[C@H]1C[C@@]2(O)[C@@H](OC(=O)c3ccccc3)[C@@H]3[C@]4(OC(C)=O)CO[C@@H]4C[C@H](OC(=O)C(C)C)[C@@]3(C)C(=O)[C@H](O)C(=C1C)C2(C)C [Compound 6202]	< 1
C/C=C/C(=O)N[C@@H](c1ccoc1)[C@@H](O)C(=O)O[C@H]1C[C@@]2(O)[C@@H](OC(=O)c3ccccc3)[C@@H]3[C@]4(OC(C)=O)CO[C@@H]4C[C@H](OC(=O)CC)[C@@]3(C)C(=O)[C@H](O)C(=C1C)C2(C)C [Compound 4898]	< 1
CCC(=O)O[C@H]1C[C@H]2OC[C@@]2(OC(C)=O)[C@H]2[C@H](OC(=O)c3ccccc3)[C@]3(O)C[C@H](OC(=O)[C@H](O)[C@@H](NC(=O)OC(C)(C)C)c4cccnc4)C(C)=C([C@@H](O)C(=O)[C@]12C)C3(C)C [Compound 1372]	26.1
C/C=C/C(=O)N[C@@H](c1ccoc1)[C@@H](O)C(=O)O[C@H]1C[C@@]2(O)[C@@H](OC(=O)c3ccccc3)[C@@H]3[C@]4(OC(C)=O)CO[C@@H]4C[C@H](OC(=O)CCC)[C@@]3(C)C(=O)[C@H](O)C(=C1C)C2(C)C [Compound 4939]	< 1
CCC(=O)O[C@H]1C[C@H]2OC[C@@]2(OC(C)=O)[C@H]2[C@H](OC(=O)c3ccccc3)[C@]3(O)C[C@H](OC(=O)[C@H](O)[C@@H](NC(=O)c4ccco4)c4ccco4)C(C)=C([C@@H](O)C(=O)[C@]12C)C3(C)C [Compound 3629]	< 1
CCCC(=O)OC1CC2OCC2(OC(C)=O)C2C(OC(=O)c3ccccc3)C3(O)CC(OC(=O)C(O)C(NC(=O)OCC(C)C)c4ccco4)C(C)=C(C(O)C(=O)C12C)C3(C)C (centres unmarked) [Compound 4616]	< 1
CCC(=O)O[C@H]1C[C@H]2OC[C@@]2(OC(C)=O)[C@H]2[C@H](OC(=O)c3ccccc3)[C@]3(O)C[C@H](OC(=O)[C@H](O)[C@@H](NC(=O)OCC(C)C)c4cccs4)C(C)=C([C@@H](O)C(=O)[C@]12C)C3(C)C [Compound 3232]	< 1
CCC(=O)OC1CC2OCC2(OC(C)=O)C2C(OC(=O)c3ccccc3)C3(O)CC(OC(=O)C(O)C(NC(=O)C=C(C)C)c4cccs4)C(C)=C(C(O)C(=O)C12C)C3(C)C (centres unmarked) [Compound 4312]	< 1
CCCC(=O)OC1CC2OCC2(OC(C)=O)C2C(OC(=O)c3ccccc3)C3(O)CC(OC(=O)C(O)C(NC(=O)OC(C)(C)C)c4ccoc4)C(C)=C(C(O)C(=O)C12C)C3(C)C (centres unmarked) [Compound 4394]	< 1
CCCC(=O)OC1CC2OCC2(OC(C)=O)C2C(OC(=O)c3ccccc3)C3(O)CC(OC(=O)C(O)C(NC(=O)c4ccccc4)c4cccs4)C(C)=C(C(O)C(=O)C12C)C3(C)C (centres unmarked) [Compound 4175]	< 10
CCC(C)(C)OC(=O)N[C@@H](c1ccco1)[C@@H](O)C(=O)O[C@H]1C[C@@]2(O)[C@@H](OC(=O)c3ccccc3)[C@@H]3[C@]4(OC(C)=O)CO[C@@H]4C[C@H](OC(=O)CC(C)C)[C@@]3(C)C(=O)[C@H](O)C(=C1C)C2(C)C [Compound 6282]	< 10
CCC(=O)O[C@H]1C[C@H]2OC[C@@]2(OC(C)=O)[C@H]2[C@H](OC(=O)c3ccccc3)[C@]3(O)C[C@H](OC(=O)[C@H](O)[C@H](C=C(C)C)NC(=O)OCC(C)C)C(C)=C([C@@H](O)C(=O)[C@]12C)C3(C)C [Compound 5121]	21.1
CCCC(=O)OC1CC2OCC2(OC(C)=O)C2C(OC(=O)c3ccccc3)C3(O)CC(OC(=O)C(O)C(C=C(C)C)NC(=O)OC(C)(C)C)C(C)=C(C(O)C(=O)C12C)C3(C)C (centres unmarked) [Compound 4406]	< 1
C/C=C/C(=O)N[C@@H](c1cccs1)[C@@H](O)C(=O)O[C@H]1C[C@@]2(O)[C@@H](OC(=O)c3ccccc3)[C@@H]3[C@]4(OC(C)=O)CO[C@@H]4C[C@H](OC(=O)CC)[C@@]3(C)C(=O)[C@H](O)C(=C1C)C2(C)C [Compound 3560]	< 1

SMILES	IC50 [nM]
CCC(=O)O[C@H]1C[C@H]2OC[C@@]2(OC(C)=O)[C@H]2[C@H](OC(=O)c3ccccc3)[C@]3(O)C[C@H](OC(=O)[C@H](O)[C@@H](NC(=O)OC(C)(C)C)c4nccs4)C(C)=C([C@@H](O)C(=O)[C@]12C)C3(C)C [Compound 6363]	< 10
CCC(=O)O[C@H]1C[C@H]2OC[C@@]2(OC(C)=O)[C@H]2[C@H](OC(=O)c3ccccc3)[C@]3(O)C[C@H](OC(=O)[C@H](O)[C@@H](NC(=O)OC(C)(C)CC)c4ccco4)C(C)=C([C@@H](O)C(=O)[C@]12C)C3(C)C [Compound 6212]	< 1
CCC(=O)O[C@H]1C[C@H]2OC[C@@]2(OC(C)=O)[C@H]2[C@H](OC(=O)c3ccccc3)[C@]3(O)C[C@H](OC(=O)[C@H](O)[C@@H](NC(=O)c4ccco4)c4cccs4)C(C)=C([C@@H](O)C(=O)[C@]12C)C3(C)C [Compound 3069]	< 1
CCCC(=O)OC1CC2OCC2(OC(C)=O)C2C(OC(=O)c3ccccc3)C3(O)CC(OC(=O)C(O)C(NC(=O)OC(C)(C)C)c4ccco4)C(C)=C(C(O)C(=O)C12C)C3(C)C (centres unmarked) [Compound 4499]	< 1
CCCC(=O)N[C@@H](c1ccco1)[C@@H](O)C(=O)O[C@H]1C[C@@]2(O)[C@@H](OC(=O)c3ccccc3)[C@@H]3[C@]4(OC(C)=O)CO[C@@H]4C[C@H](OC(=O)CC)[C@@]3(C)C(=O)[C@H](O)C(=C1C)C2(C)C [Compound 3171]	< 1
CCC(=O)O[C@H]1C[C@H]2OC[C@@]2(OC(C)=O)[C@H]2[C@H](OC(=O)c3ccccc3)[C@]3(O)C[C@H](OC(=O)[C@H](O)[C@@H](NC(=O)OC(C)(C)C)c4ccncc4)C(C)=C([C@@H](O)C(=O)[C@]12C)C3(C)C [Compound 1386]	< 1
CCCC(=O)OC1CC2OCC2(OC(C)=O)C2C(OC(=O)c3ccccc3)C3(O)CC(OC(=O)C(O)C(NC(=O)OC(C)C)c4cccs4)C(C)=C(C(O)C(=O)C12C)C3(C)C (centres unmarked) [Compound 4135]	< 1
CCCC(=O)OC1CC2OCC2(OC(C)=O)C2C(OC(=O)c3ccccc3)C3(O)CC(OC(=O)C(O)C(NC(=O)OC(C)(C)C)c4ccsc4)C(C)=C(C(O)C(=O)C12C)C3(C)C (centres unmarked) [Compound 4446]	< 1
CCCC(=O)OC1CC2OCC2(OC(C)=O)C2C(OC(=O)c3ccccc3)C3(O)CC(OC(=O)C(O)C(NC(=O)OCC(C)C)c4ccsc4)C(C)=C(C(O)C(=O)C12C)C3(C)C (centres unmarked) [Compound 4600]	< 10
CCCC(=O)OC1CC2OCC2(OC(C)=O)C2C(OC(=O)c3ccccc3)C3(O)CC(OC(=O)C(O)C(NC(=O)C=C(C)C)c4cccs4)C(C)=C(C(O)C(=O)C12C)C3(C)C (centres unmarked) [Compound 4283]	< 1
CCCC(=O)O[C@H]1C[C@H]2OC[C@@]2(OC(C)=O)[C@H]2[C@H](OC(=O)c3ccccc3)[C@]3(O)C[C@H](OC(=O)[C@H](O)[C@@H](NC(=O)OCC(C)C)C4CC4)C(C)=C([C@@H](O)C(=O)[C@]12C)C3(C)C [Compound 5202]	< 10
CCCCC(=O)O[C@H]1C[C@H]2OC[C@@]2(OC(C)=O)[C@H]2[C@H](OC(=O)c3ccccc3)[C@]3(O)C[C@H](OC(=O)[C@H](O)[C@@H](NC(=O)OC(C)(C)CC)c4ccco4)C(C)=C([C@@H](O)C(=O)[C@]12C)C3(C)C [Compound 6343]	< 10
CCC(=O)O[C@H]1C[C@H]2OC[C@@]2(OC(C)=O)[C@H]2[C@H](OC(=O)c3ccccc3)[C@]3(O)C[C@H](OC(=O)[C@H](O)[C@@H](NC(=O)OC(C)(C)C)C4CCC4)C(C)=C([C@@H](O)C(=O)[C@]12C)C3(C)C [Compound 1447]	< 10
CCC(=O)O[C@H]1C[C@H]2OC[C@@]2(OC(C)=O)[C@H]2[C@H](OC(=O)c3ccccc3)[C@]3(O)C[C@H](OC(=O)[C@H](O)[C@@H](NC(=O)OC(C)(C)C)c4ccccn4)C(C)=C([C@@H](O)C(=O)[C@]12C)C3(C)C [Compound 1364]	< 10
CCC(=O)O[C@H]1C[C@H]2OC[C@@]2(OC(C)=O)[C@H]2[C@H](OC(=O)c3ccccc3)[C@]3(O)C[C@H](OC(=O)[C@H](O)[C@@H](NC(=O)c4cccs4)c4cccs4)C(C)=C([C@@H](O)C(=O)[C@]12C)C3(C)C [Compound 3479]	< 1
CCCC(=O)N[C@@H](c1cccs1)[C@@H](O)C(=O)O[C@H]1C[C@@]2(O)[C@@H](OC(=O)c3ccccc3)[C@@H]3[C@]4(OC(C)=O)CO[C@@H]4C[C@H](OC(=O)CC)[C@@]3(C)C(=O)[C@H](O)C(=C1C)C2(C)C [Compound 3327]	< 10
CCCC(=O)OC1CC2OCC2(OC(C)=O)C2C(OC(=O)c3ccccc3)C3(O)CC(OC(=O)C(O)C(NC(=O)c4cccs4)c4cccs4)C(C)=C(C(O)C(=O)C12C)C3(C)C (centres unmarked) [Compound 4388]	< 1
